The source of these data is patent US20220087996A1, “Histone acetylase p300 inhibitor and use thereof” (HINOVA PHARMACEUTICALS INC., priority 2018, published 2022).

The term IC50 denotes the point on the concentration scale where inhibition reaches its midpoint.

Each structure is given as a SMILES string. Read-outs that look alike come from different tables or passages of the source.

One test has as its system CWR22RV1 cells. In words: Compound in combination with CDK4/6 inhibitor palbociclib on proliferation of CWR22RV1 cells. Type of test: cell-based, human. The settings on record: for IC50: Homo sapiens, read-out: IC50 against the activity of CWR22RV1 cells. The method, then:
The IC50 values (nM) of the compound according to the present invention, palbociclib, and the combination of the compound according to the present invention and palbociclib against CWR22RV1 cell proliferation were tested and calculated, and the detailed procedures were as follows:
(§1) 1) CWR22RV1 cells were subcultured in cell culture medium, and the cells in good growth condition were seeded in a 96-well plate, 60 μL for each well, and the cell number in each well was 2000. The plate was incubated overnight in a 37° C., 5% CO2 cell incubator. 2) The drug was prepared as 10 mM stock solution with dimethyl sulfoxide (DMSO). Prior to use, the stock solution was diluted 3 times with DMSO, and then further diluted as 3-fold gradient to obtain 9 concentration gradients. Then, each concentration of compound was diluted 200 times with the culture solution (ensuring that the DMSO concentration in the culture system was 0.1%), and two replicate wells were set for each concentration. 20 μL of diluted compound solution was added to the cell culture well (with final concentrations of 10 μM, 3.3 μM, 1.1 μM . . . ). Palbociclib was diluted with culture medium to 500 nM, 150 nM, 50 nM, 5 nM, and 20 μL diluted compound solution was added to the corresponding cell culture wells (with a final concentration of 100 nM, 30 nM, 10 nM, 1 nM). The plate was gently shaken to mix. In addition, 3 negative control wells containing only cells and 3 blank control wells containing only culture medium were included (6 wells were each added 20 μL DMSO diluted 200 times with culture medium).
(§2) (1) After culturing for 6 days, 10 μL CCK-8 was added to each well, and the plate was continually cultured in a 37° C., 5% CO2 cell incubator for 2.5 h. (2) The absorbance (OD value) was detected at 450 nm using a multifunctional microplate reader. (3) The data were analyzed by Dose-response-inhibition equation in the software GraphPad Prism6, and the IC50 value was obtained.

The next test concerns MCF-7 cells. In words: Compound in combination with CDK4/6 inhibitor palbociclib against proliferation of MCF-7 cells. The note with it: for IC50: Homo sapiens. The format is cell-based. The protocol:
as §1, §2
Using the same method as Experimental example 4, CWR22RV1 cells were replaced with MCF-7 cells, and the IC50 values (nM) of the compound according to the present invention, palbociclib, as well as the combination of the compound according to the present invention and palbociclib against the proliferation of MCF-7 cells w ere tested and calculated.

The mark [1] stands for this setting: combination with CDK4/6 inhibitor palbociclib.

Turning to `CNC(=O)Nc1ccc2c(c1)CC[C@@]21OC(=O)N(CC(=O)N2C(C)CC[C@H]2c2cc(F)c(F)c(F)c2)C1=O` (stereo in doubt) [Example 205, 1-((R)-3′-(2-((2S,5R)-2-(3,4,5-trifluorophenyl)-5-methylpyrrolidin-1-yl)-2-oxoethyl)-2′,4′-dioxo-2,3-dihydrospiro[indene-1,5′-oxazolidine]-5-yl)-3-methylurea], the IC50 in the test with CWR22RV1 cells (CWR22Rv1, in combination with 1 nM palbociclib) is 130 nM; in the test on CWR22RV1 cells (CWR22Rv1, in combination with 10 nM palbociclib), 110 nM; with CWR22RV1 cells (CWR22Rv1, in combination with 30 nM palbociclib), 40 nM; in the test with CWR22RV1 cells (CWR22Rv1, in combination with 100 nM palbociclib), less than 1 nM; with CWR22RV1 cells (CWR22Rv1, single agent), 120 nM; in the test on MCF-7 cells (MCF7, in combination with 10 nM palbociclib), 19 nM. Besides, the 50% inhibitory concentration (IC50) in the test with MCF-7 cells (MCF7, in combination with 30 nM palbociclib) was 1.6 nM; in the test with MCF-7 cells (MCF7, in combination with 100 nM palbociclib), 1.5 nM; in the test on MCF-7 cells (MCF7, single agent), 81 nM. The “inhibitory activity on CWR22RV1 cells when combined with palbociclib, versus either agent alone” value in the test with CWR22RV1 cells (setting [1]) is “much higher”. Also, the “inhibitory activity on MCF-7 cells when combined with palbociclib, versus either agent alone” value in the test with MCF-7 cells (setting [1]) is on record as “much higher”.
